The text below walks through data of patent EP0219144A1, “Diphenyl ether herbicides” (SHELL INTERNATIONALE RESEARCH MAATSCHAPPIJ B.V., priority 1985, dated 1987).

A short description of this data set: physchem. Type of data set: physicochemical. To be noted: for half-life: 25% 1,4-dioxan. Here is the method:
The hydrolytic stability of the compounds of this invention was compared with representative examples of other phenoxy phthalides specifically described in Applicants' earlier EPA 145078. This property was evaluated by determining the half-life (in hours) at pH7.0 and 9.0 in 25% 1,4-dioxan at 39°C. The results of these tests are set out in Table I below, in which the test compounds are identified by reference to the substituent A in the following formula: [drawing 12] 'N.D.D.' = No detectable decomposition over a 200 hour period

With `CCC1(CC)OC(=O)c2ccc(Oc3ccc(C(F)(F)F)cc3Cl)cc21` [C(C2H5)2, H, 5-(2'-Chloro-4'-trifluoromethylphenoxy)-3,3-diethylphthalide], the “Half-Life pH 7.0” value (pH 7) is listed as “NDD”. Besides, the “Half-Life pH 9.0” value (pH 9) is “NDD”.
Consider `CC1(C)OC(=O)c2ccc(Oc3c(Cl)cc(C(F)(F)F)cc3Cl)cc21` [C(CH3)2, Cl], for which the “Half-Life pH 7.0” value (pH 7) was “NDD”. For the same compound, the “Half-Life pH 9.0” value (pH 9) was “NDD”.
For the compound `CC1(C)OC(=O)c2ccc(Oc3ccc(C(F)(F)F)cc3Cl)cc21` [C(CH3)2, H, 5-(2'-Chloro-4'-trifluoromethylphenoxy)-3,3-dimethyl phthalide], the half-life by setting is: (pH 7) 4920 h; (pH 9) 1900 h.
`CCC1(C)OC(=O)c2ccc(Oc3ccc(C(F)(F)F)cc3Cl)cc21` (centres unmarked) [C(CH3)(C2H5), H]: under “pH 7”, the “Half-Life pH 7.0” value was “NDD”. For the same compound, for the setting “pH 9”, the “Half-Life pH 9.0” value was “NDD”.
Take `O=C1OCc2cc(Oc3ccc(C(F)(F)F)cc3Cl)ccc21` [CH2, H, reference compound]: the half-life reads like this: (pH 7) 56.5 h; (pH 9) 14.5 h.
As to `CC1OC(=O)c2ccc(Oc3ccc(C(F)(F)F)cc3Cl)cc21` (centres unmarked) [CH(CH3), H, (2'-chloro-9'-trifluoro-methylphenoxy)-3-methyl phthalide, reference compound], the half-life reads like this: (pH 7) 1060 h; (pH 9) 11 h.
For `COC1OC(=O)c2ccc(Oc3ccc(C(F)(F)F)cc3Cl)cc21` (centres unmarked) [CH(OCH3), H, reference compound], in that order: 17.2 h and 1.2 h.
